Experiments:
BRD4 BD1 = BRD4 BD1 (Homo sapiens (Human), UniProt O60885); experiment: Bromodomain binding assay (T7 phage display, qPCR), BRD4 BD1; settings: read-out: BRD4 BD1 Kd
Method: T7 phage strains displaying bromodomains were grown in parallel in 24-well blocks in an E. coli host derived from the BL21 strain. E. coli were grown to log-phase and infected with T7 phage from a frozen stock (multiplicity of infection=0.4) and incubated with shaking at 32° C. until lysis (90-150 min). The lysates were centrifuged (5,000×g) and filtered (0.2 μm) to remove cell debris. Streptavidin-coated magnetic beads were treated with biotinylated small molecule or acetylated peptide ligands for 30 min at RT to generate affinity resins for bromodomain assays. The ligated beads were blocked with excess biotin and washed with blocking buffer (SeaBlock (Pierce), 1% BSA, 0.05% Tween 20, 1 mM DTT) to remove unbound ligand and to reduce non-specific phage binding. Binding reactions were assembled by combining bromodomains, ligated affinity beads, and test compounds in 1× binding buffer (16% SeaBlock, 0.32×PBS, 0.02% BSA, 0.04% Tween 20, 0.004% Sodium azide, 7.9 mM DTT). Test compounds were prepared as 1000× stocks in 100% DMSO and subsequently diluted 1:25 in MEG. The compounds were then diluted directly into the assays such that the final concentrations of DMSO and MEG were 0.1% and 2.4%, respectively. All reactions were performed in polypropylene 384-well plates in a final volume of 0.02 ml. The assay plates were incubated at RT with shaking for 1 hr and the affinity beads were washed with wash buffer (1×PBS, 0.05% Tween 20). The beads were then re-suspended in elution buffer (1×PBS, 0.05% Tween 20, 2 μM non-biotinylated affinity ligand) and incubated at RT with shaking for 30 min. The bromodomain concentration in the eluates was measured by quantitative polymerase chain reaction (qPCR).
An 11-point 3-fold serial dilution of each test compound was prepared in 100% DMSO at 1000× final test concentration. All compounds were distributed by acoustic transfer (non-contact dispensing) in 100% DMSO. The compounds were then diluted directly into the assays such that the final concentration of DMSO was 0.09%. Most dissociation constants were determined using a compound top concentration=10,000 nM. If the initial dissociation constant determined was <0.169 nM (the lowest concentration tested), the measurement was repeated with a serial dilution starting at a lower top concentration.
The same bromodomain assay procedure as that outlined above was used. Example compounds were screened at 30 times their Kd, and results for primary screen binding interactions are reported as ‘% Ctrl’, where lower numbers indicate stronger hits in the matrix.

human liver hepatocytes = experiment: Intrinsic clearance in human liver hepatocytes; type: in vitro ADME; settings: human cryopreserved hepatocytes, 0.5 μM test compound
Method: Vials of human cryopreserved hepatocytes, supplied by Life Technologies, were thawed according to manufacturer's instructions and cells re-suspended in Williams Medium E (WME) containing cell maintenance supplement pack (CM4000, Life Technologies). Hepatocytes were incubated in suspension (0.5 million cells/mL) in 48 well non-collagen coated cell culture plates for 10 min at 37° C., 5% CO2. Upon addition of an equal volume of supplemented WME containing 1 μM test compound, an aliquot of incubation solution was removed to acetonitrile containing internal standard (final concentration 0.5 μM test compound and a cell density of 0.25 million cells/mL). Similarly, aliquots were removed at 3, 6, 9, 15, 30, 45, 60, 90 and 120 min. 100 μL of 80:20 water:acetonitrile was added to all samples and the analysis plate was centrifuged for 10 min at RT prior to injection and analysis of samples by UPLC-MS/MS. The response (area ratio of test compound to internal standard) was plotted against time using an exponential decay model from which rate of disappearance was calculated.

Row | Compound | Kd (BRD4 BD1) [nM] | Intrinsic clearance, % Liver Blood Flow (human liver hepatocytes) [% Liver Blood Flow]
1 | Cn1cc(-c2scnc2Cc2ccccc2)c2cc[nH]c2c1=O [Example 17, 4-(4-benzylthiazol-5-yl)-6-methyl-1,6-dihydro-7H-pyrrolo[2,3-c]pyridin-7-one] | 10 to 100 | –
2 | Cn1cc(Cc2ccccc2)c(-c2cn(C)c(=O)c3[nH]ccc23)cc1=O [Example 13, 4-(5-benzyl-1-methyl-2-oxo-1,2-dihydropyridin-4-yl)-6-methyl-1,6-dihydro-7H-pyrrolo[2,3-c]pyridin-7-one] | 100 to 1000 | 34
3 | CCCOc1ccc(O)cc1-c1cn(C)c(=O)c2[nH]ccc12 [Example 9, 4-(5-hydroxy-2-propoxyphenyl)-6-methyl-1,6-dihydro-7H-pyrrolo[2,3-c]pyridin-7-one] | 10 to 100 | 95
4 | Cn1cc(-c2cc(O)ccc2OC2CCCCC2)c2cc[nH]c2c1=O [Example 11, 4-(2-(cyclohexyloxy)-5-hydroxyphenyl)-6-methyl-1,6-dihydro-7H-pyrrolo[2,3-c]pyridin-7-one] | ≤ 10 | 97
5 | COc1cccc(Oc2c(-c3cn(C)c(=O)c4[nH]ccc34)ccn(C)c2=O)c1 [Example 32, 4-(3-(3-methoxyphenoxy)-1-methyl-2-oxo-1,2-dihydropyridin-4-yl)-6-methyl-1,6-dihydro-7H-pyrrolo[2,3-c]pyridin-7-one] | 10 to 100 | <34
6 | Cn1ccc(-c2cn(C)c(=O)c3[nH]ccc23)c(Oc2ccc(O)cc2)c1=O [Example 35, 4-(3-(4-hydroxyphenoxy)-1-methyl-2-oxo-1,2-dihydropyridin-4-yl)-6-methyl-1,6-dihydro-7H-pyrrolo[2,3-c]pyridin-7-one] | 10 to 100 | –
7 | Cn1cc(-c2ccnn2Cc2ccccc2)c2cc[nH]c2c1=O [Example 14, 4-(1-benzyl-1H-pyrazol-5-yl)-6-methyl-1,6-dihydro-7H-pyrrolo[2,3-c]pyridin-7-one] | 100 to 1000 | –
8 | COc1ccccc1Oc1c(-c2cn(C)c(=O)c3[nH]ccc23)ccn(C)c1=O [Example 30, 4-(3-(2-methoxyphenoxy)-1-methyl-2-oxo-1,2-dihydropyridin-4-yl)-6-methyl-1,6-dihydro-7H-pyrrolo[2,3-c]pyridin-7-one] | 10 to 100 | <34
9 | COC1CCC(Oc2ccc(O)cc2-c2cn(C)c(=O)c3[nH]ccc23)CC1 (stereo not drawn) [Example 12, 4-(5-hydroxy-2-((4-methoxycyclohexyl)oxy)phenyl)-6-methyl-1,6-dihydro-7H-pyrrolo[2,3-c]pyridin-7-one] | ≤ 10 | 82
10 | COc1ccc(Oc2c(-c3cn(C)c(=O)c4[nH]ccc34)ccn(C)c2=O)cc1 [Example 34, 4-(3-(4-methoxyphenoxy)-1-methyl-2-oxo-1,2-dihydropyridin-4-yl)-6-methyl-1,6-dihydro-7H-pyrrolo[2,3-c]pyridin-7-one] | 10 to 100 | <34
11 | COc1ccc(Oc2cn(C)c(=O)cc2-c2cn(C)c(=O)c3[nH]ccc23)cc1 [Example 25, 4-(5-(4-methoxyphenoxy)-1-methyl-2-oxo-1,2-dihydropyridin-4-yl)-6-methyl-1,6-dihydro-7H-pyrrolo[2,3-c]pyridin-7-one] | 10 to 100 | 38
12 | Cn1cc(-c2ncnn2Cc2ccccc2)c2cc[nH]c2c1=O [Example 16, 4-(1-benzyl-1H-1,2,4-triazol-5-yl)-6-methyl-1,6-dihydro-7H-pyrrolo[2,3-c]pyridin-7-one] | 100 to 1000 | –
13 | Cn1cc(-c2scnc2Oc2ccccc2O)ccc1=O [Example 21, 5-(4-(2-hydroxyphenoxy)thiazol-5-yl)-1-methylpyridin-2(1H)-one] | 100 to 1000 | –
14 | Cn1cc(-c2nccn2Cc2ccccc2)c2cc[nH]c2c1=O [Example 15, 4-(1-benzyl-1H-imidazol-2-yl)-6-methyl-1,6-dihydro-7H-pyrrolo[2,3-c]pyridin-7-one] | 100 to 1000 | –
15 | Cn1ccc(-c2cn(C)c(=O)c3[nH]ccc23)c(Oc2ccccc2O)c1=O [Example 31, 4-(3-(2-hydroxyphenoxy)-1-methyl-2-oxo-1,2-dihydropyridin-4-yl)-6-methyl-1,6-dihydro-7H-pyrrolo[2,3-c]pyridin-7-one] | 10 to 100 | <34
16 | Cn1cc(-c2scnc2Oc2ccccc2O)c2cc[nH]c2c1=O [Example 19, 4-(4-(2-hydroxyphenoxy)thiazol-5-yl)-6-methyl-1,6-dihydro-7H-pyrrolo[2,3-c]pyridin-7-one] | 100 to 1000 | –

More lines, now with the values ahead:

Row | Kd (BRD4 BD1) [nM] | Intrinsic clearance, % Liver Blood Flow (human liver hepatocytes) [% Liver Blood Flow] | Compound
17 | 10 to 100 | 38 | COc1cccc(Oc2cn(C)c(=O)cc2-c2cn(C)c(=O)c3[nH]ccc23)c1 [Example 23, 4-(5-(3-methoxyphenoxy)-1-methyl-2-oxo-1,2-dihydropyridin-4-yl)-6-methyl-1,6-dihydro-7H-pyrrolo[2,3-c]pyridin-7-one]
18 | 100 to 1000 | <34 | COc1ccc(Oc2cn(C)c(=O)cc2-c2ccc(=O)n(C)c2)cc1 [Example 27, 5′-(4-methoxyphenoxy)-1,1′-dimethyl-[3,4′-bipyridine]-2′,6(1H,1′H)-dione]
19 | 100 to 1000 | <34 | Cn1cc(Oc2ccccc2O)c(-c2cn(C)c(=O)c3[nH]ccc23)cc1=O [Example 22, 4-(5-(2-hydroxyphenoxy)-1-methyl-2-oxo-1,2-dihydropyridin-4-yl)-6-methyl-1,6-dihydro-7H-pyrrolo[2,3-c]pyridin-7-one]
20 | 100 to 1000 | – | Cn1cc(-c2ccn(C)c(=O)c2Oc2ccccc2O)ccc1=O [Example 36, 3′-(2-hydroxyphenoxy)-1,1′-dimethyl-[3,4′-bipyridine]-2′,6(1H,1′H)-dione]
21 | ≤ 10 | <34 | Cn1ccc(-c2cn(C)c(=O)c3[nH]ccc23)c(Oc2cccc(O)c2)c1=O [Example 33, 4-(3-(3-hydroxyphenoxy)-1-methyl-2-oxo-1,2-dihydropyridin-4-yl)-6-methyl-1,6-dihydro-7H-pyrrolo[2,3-c]pyridin-7-one]
22 | 100 to 1000 | – | Cn1cc(-c2ccn(C)c(=O)c2Oc2ccc(O)cc2)ccc1=O [Example 38, 3′-(4-hydroxyphenoxy)-1,1′-dimethyl-[3,4′-bipyridine]-2′,6(1H,1′H)-dione]
23 | 10 to 100 | <34 | Cn1cc(-c2cc(=O)n(C)cc2Oc2cccc(O)c2)ccc1=O [Example 29, 5′-(3-hydroxyphenoxy)-1,1′-dimethyl-[3,4′-bipyridine]-2′,6(1H,1′H)-dione]
24 | 10 to 100 | <34 | Cn1cc(Oc2ccc(O)cc2)c(-c2cn(C)c(=O)c3[nH]ccc23)cc1=O [Example 26, 4-(5-(4-hydroxyphenoxy)-1-methyl-2-oxo-1,2-dihydropyridin-4-yl)-6-methyl-1,6-dihydro-7H-pyrrolo[2,3-c]pyridin-7-one]
25 | 100 to 1000 | <34 | Cn1cc(-c2cc(=O)n(C)cc2Oc2ccc(O)cc2)ccc1=O [Example 28]
26 | 100 to 1000 | – | Cn1cc(-c2ccn(C)c(=O)c2Oc2cccc(O)c2)ccc1=O [Example 37, 3′-(3-hydroxyphenoxy)-1,1′-dimethyl-[3,4′-bipyridine]-2′,6(1H,1′H)-dione]

— patent publication US12384777B2 (Tay Therapeutics Limited, priority 2019, dated 2025)
